Our source for the IC50 values is ChEMBL document CHEMBL1158056, “Antidepressant principles of the roots of Polygala tenuifolia” (J Nat Prod, 2006).

Usually IC50 stands for the concentration needed to halve the response being measured. Lower therefore signals higher potency.

The assay has as its target Sodium-dependent noradrenaline transporter (Homo sapiens, UniProt P23975). Put plainly: biochemical.

Sodium-dependent noradrenaline transporter, sequence (P23975 whole entry): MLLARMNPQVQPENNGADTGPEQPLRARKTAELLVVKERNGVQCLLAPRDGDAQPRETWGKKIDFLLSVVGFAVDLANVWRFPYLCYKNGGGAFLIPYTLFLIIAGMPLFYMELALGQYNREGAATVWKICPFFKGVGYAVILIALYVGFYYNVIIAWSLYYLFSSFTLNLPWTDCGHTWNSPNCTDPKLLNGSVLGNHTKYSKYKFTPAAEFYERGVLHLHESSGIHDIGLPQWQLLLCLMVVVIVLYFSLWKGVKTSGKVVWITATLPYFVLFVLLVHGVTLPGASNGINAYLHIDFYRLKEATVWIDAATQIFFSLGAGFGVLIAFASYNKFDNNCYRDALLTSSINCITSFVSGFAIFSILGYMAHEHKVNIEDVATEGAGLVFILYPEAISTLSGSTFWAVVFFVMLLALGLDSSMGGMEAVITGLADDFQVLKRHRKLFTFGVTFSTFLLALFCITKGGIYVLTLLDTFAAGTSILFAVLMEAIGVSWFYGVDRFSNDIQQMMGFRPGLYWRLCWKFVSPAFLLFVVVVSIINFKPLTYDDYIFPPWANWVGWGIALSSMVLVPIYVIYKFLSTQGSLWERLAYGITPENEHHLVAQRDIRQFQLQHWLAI
Description: Displacement of [125I]RTI-55 from human NET expressed in MDCK cell membrane

The compound `OC[C@@H]1OC[C@@H](O[C@@H]2O[C@@H](COCc3ccccc3)[C@@H](O)[C@@H](O)[C@@H]2O)[C@H](O)[C@H]1O` [POLYGALATENOSIDE A] showed a 50% inhibitory concentration (IC50) of 30 µM. In other words, the double-digit micromolar range.
The figure for `OC[C@@H]1OC[C@@H](O[C@@H]2O[C@@H](CO)[C@@H](O)[C@@H](OCc3ccccc3)[C@@H]2O)[C@H](O)[C@H]1O` [POLYGALATENOSIDE B] is 6.04 µM.
